What was measured:
Melanocortin receptor 4 [1] = target: T1, Melanocortin receptor 4 (Homo sapiens, UniProt P32245); assay: Displacement of [125I]NDP-MSH from human MC4R expressed in HEK293 cells; format: cell-based
Melanocortin receptor 4 [2] = target: T1, Melanocortin receptor 4; assay: Intrinsic activity at human MC4R expressed in HEK293 cells assessed as cAMP accumulation relative to alphaMSH; format: functional, cell-based
Melanocortin receptor 4 [3] = target: T1, Melanocortin receptor 4; assay: Agonist activity at human MC4R expressed in HEK293 cells assessed as cAMP accumulation; format: functional, cell-based

T1 sequence (P32245 whole entry): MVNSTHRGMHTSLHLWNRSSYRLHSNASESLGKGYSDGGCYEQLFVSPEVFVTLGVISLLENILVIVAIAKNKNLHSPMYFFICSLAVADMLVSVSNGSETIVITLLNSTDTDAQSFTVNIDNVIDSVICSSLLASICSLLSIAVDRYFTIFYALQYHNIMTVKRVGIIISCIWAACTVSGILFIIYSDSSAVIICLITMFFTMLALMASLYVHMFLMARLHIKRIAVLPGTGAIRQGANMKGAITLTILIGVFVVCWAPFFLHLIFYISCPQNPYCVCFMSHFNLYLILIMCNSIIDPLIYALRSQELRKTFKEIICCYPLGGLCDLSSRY

## Cc1ccc(N2CCN(C(=O)[C@@H]3CN(C(C)C)C[C@H]3c3ccc(Cl)cc3)CC2)c([C@@H](NC(=O)CN(C)C)C(C)C)c1
Melanocortin receptor 4 [1]
  Ki: 0.0071 µM
Melanocortin receptor 4 [2]
  Intrinsic activity: 100%
Melanocortin receptor 4 [3]
  EC50: 0.17 µM

## CC(C)[C@H](NC(=O)CCN)c1cccc(F)c1N1CCN(C(=O)[C@@H]2CN(C(C)C)C[C@H]2c2ccc(Cl)cc2)CC1
Melanocortin receptor 4 [1]
  Ki: 0.013 µM
Melanocortin receptor 4 [2]
  Intrinsic activity: 100%
Melanocortin receptor 4 [3]
  EC50: 0.0069 µM

## CNCCNCc1ccccc1N1CCN(C(=O)[C@@H]2CN(C(C)C)C[C@H]2c2ccc(Cl)cc2)CC1
Melanocortin receptor 4 [1]
  Ki: 0.27 µM

## CC(C)C[C@H](NC(=O)CN(C)C)c1cc(C(F)(F)F)ccc1N1CCN(C(=O)[C@@H]2CN(C(C)C)C[C@H]2c2ccc(Cl)cc2)CC1
Melanocortin receptor 4 [1]
  Ki: 0.0173 µM
Melanocortin receptor 4 [2]
  Intrinsic activity: 99%
Melanocortin receptor 4 [3]
  EC50: 0.052 µM

## Cc1ccc(N2CCN(C(=O)[C@@H]3CN(C(C)C)C[C@H]3c3ccc(Cl)cc3)CC2)c([C@@H](N)C(C)C)c1
Melanocortin receptor 4 [1]
  Ki: 0.012 µM
Melanocortin receptor 4 [2]
  Intrinsic activity: 99%
Melanocortin receptor 4 [3]
  EC50: 0.105 µM

## CC(C)N1C[C@@H](C(=O)N2CCN(c3ccccc3C=O)CC2)[C@H](c2ccc(Cl)cc2)C1
Melanocortin receptor 4 [1]
  Ki: 1.15 µM

## CC(C)N1C[C@@H](C(=O)N2CCN(c3ccccc3CN3CCCC3)CC2)[C@H](c2ccc(Cl)cc2)C1
Melanocortin receptor 4 [1]
  Ki: 0.55 µM

## CC(C)N1C[C@@H](C(=O)N2CCN(c3ccccc3CNS(C)(=O)=O)CC2)[C@H](c2ccc(Cl)cc2)C1
Melanocortin receptor 4 [1]
  Ki: 1.7 µM

## CC(C)C[C@H](NC(=O)CCN)c1cc(C(F)(F)F)ccc1N1CCN(C(=O)[C@@H]2CN(C(C)C)C[C@H]2c2ccc(Cl)cc2)CC1
Melanocortin receptor 4 [1]
  Ki: 0.0087 µM
Melanocortin receptor 4 [2]
  Intrinsic activity: 95%
Melanocortin receptor 4 [3]
  EC50: 0.0046 µM

## CC(C)N1C[C@@H](C(=O)N2CCN(c3ccccc3CNc3ccccc3N)CC2)[C@H](c2ccc(Cl)cc2)C1
Melanocortin receptor 4 [1]
  Ki: 1.4 µM

## CC(C)N1C[C@@H](C(=O)N2CCN(c3ccccc3CNCCN)CC2)[C@H](c2ccc(Cl)cc2)C1
Melanocortin receptor 4 [1]
  Ki: 0.23 µM

## CC(C)N1C[C@@H](C(=O)N2CCN(c3ccccc3Cn3ccnn3)CC2)[C@H](c2ccc(Cl)cc2)C1
Melanocortin receptor 4 [1]
  Ki: 0.42 µM

## CC(C)CNCc1ccccc1N1CCN(C(=O)[C@@H]2CN(C(C)C)C[C@H]2c2ccc(Cl)cc2)CC1
Melanocortin receptor 4 [1]
  Ki: 0.51 µM

## CC(C)[C@H](N)c1cccc(F)c1N1CCN(C(=O)[C@@H]2CN(C(C)C)C[C@H]2c2ccc(Cl)cc2)CC1
Melanocortin receptor 4 [1]
  Ki: 0.021 µM
Melanocortin receptor 4 [2]
  Intrinsic activity: 68%
Melanocortin receptor 4 [3]
  EC50: 0.27 µM

## CC(C)N1C[C@@H](C(=O)N2CCN(c3ccccc3Cn3cnnc3)CC2)[C@H](c2ccc(Cl)cc2)C1
Melanocortin receptor 4 [1]
  Ki: 0.58 µM

## CC(C)N1C[C@@H](C(=O)N2CCN(c3ccccc3CNc3cccnc3)CC2)[C@H](c2ccc(Cl)cc2)C1
Melanocortin receptor 4 [1]
  Ki: 1.6 µM

## CC(C)N1C[C@@H](C(=O)N2CCN(c3ccccc3Cn3ccnc3)CC2)[C@H](c2ccc(Cl)cc2)C1
Melanocortin receptor 4 [1]
  Ki: 0.22 µM
Melanocortin receptor 4 [2]
  Intrinsic activity: 52%
Melanocortin receptor 4 [3]
  EC50: 0.32 µM

## CC(C)[C@H](NC(=O)[C@@H](C)N)c1cccc(F)c1N1CCN(C(=O)[C@@H]2CN(C(C)C)C[C@H]2c2ccc(Cl)cc2)CC1
Melanocortin receptor 4 [1]
  Ki: 0.0044 µM
Melanocortin receptor 4 [2]
  Intrinsic activity: 70%
Melanocortin receptor 4 [3]
  EC50: 0.009 µM

## CNCC(=O)N[C@@H](CC(C)C)c1cc(C(F)(F)F)ccc1N1CCN(C(=O)[C@@H]2CN(C(C)C)C[C@H]2c2ccc(Cl)cc2)CC1
Melanocortin receptor 4 [1]
  Ki: 0.0077 µM
Melanocortin receptor 4 [2]
  Intrinsic activity: 63%
Melanocortin receptor 4 [3]
  EC50: 0.067 µM

## CC(C)N1C[C@@H](C(=O)N2CCN(c3ccccc3CN3CCCCC3)CC2)[C@H](c2ccc(Cl)cc2)C1
Melanocortin receptor 4 [1]
  Ki: 0.95 µM

## Cc1ccc(N2CCN(C(=O)[C@@H]3CN(C(C)C)C[C@H]3c3ccc(Cl)cc3)CC2)c([C@H](C(C)C)N(C)C)c1
Melanocortin receptor 4 [1]
  Ki: 0.013 µM
Melanocortin receptor 4 [2]
  Intrinsic activity: 44%

## CC(C)N1C[C@@H](C(=O)N2CCN(c3ccccc3Cn3cccn3)CC2)[C@H](c2ccc(Cl)cc2)C1
Melanocortin receptor 4 [1]
  Ki: 0.49 µM

## CNCC(=O)N[C@H](c1cccc(F)c1N1CCN(C(=O)[C@@H]2CN(C(C)C)C[C@H]2c2ccc(Cl)cc2)CC1)C(C)C
Melanocortin receptor 4 [1]
  Ki: 0.011 µM
Melanocortin receptor 4 [2]
  Intrinsic activity: 114%
Melanocortin receptor 4 [3]
  EC50: 0.016 µM

## CC(C)CN(Cc1ccccc1N1CCN(C(=O)[C@@H]2CN(C(C)C)C[C@H]2c2ccc(Cl)cc2)CC1)CC(C)C
Melanocortin receptor 4 [1]
  Ki: 1.1 µM

## CC(C)N1C[C@@H](C(=O)N2CCN(c3ccccc3CNC3CNC3)CC2)[C@H](c2ccc(Cl)cc2)C1
Melanocortin receptor 4 [1]
  Ki: 0.52 µM

## CC(C)N1C[C@@H](C(=O)N2CCN(c3ccccc3CN3CCNCC3)CC2)[C@H](c2ccc(Cl)cc2)C1
Melanocortin receptor 4 [1]
  Ki: 0.36 µM

## CC(C)C[C@H](N)c1cc(C(F)(F)F)ccc1N1CCN(C(=O)[C@@H]2CN(C(C)C)C[C@H]2c2ccc(Cl)cc2)CC1
Melanocortin receptor 4 [1]
  Ki: 0.026 µM
Melanocortin receptor 4 [2]
  Intrinsic activity: 94%
Melanocortin receptor 4 [3]
  EC50: 1.1 µM

## CC(C)N1C[C@@H](C(=O)N2CCN(c3ccccc3C#N)CC2)[C@H](c2ccc(Cl)cc2)C1
Melanocortin receptor 4 [1]
  Ki: 4.8 µM

## CC(C)CN(Cc1ccccc1N1CCN(C(=O)[C@@H]2CN(C(C)C)C[C@H]2c2ccc(Cl)cc2)CC1)C(=O)CCN
Melanocortin receptor 4 [1]
  Ki: 0.45 µM

## CC(=O)N[C@H](c1cc(C)ccc1N1CCN(C(=O)[C@@H]2CN(C(C)C)C[C@H]2c2ccc(Cl)cc2)CC1)C(C)C
Melanocortin receptor 4 [1]
  Ki: 0.047 µM
Melanocortin receptor 4 [2]
  Intrinsic activity: 35%

## CC(C)N1C[C@@H](C(=O)N2CCN(c3ccccc3Cn3cncn3)CC2)[C@H](c2ccc(Cl)cc2)C1
Melanocortin receptor 4 [1]
  Ki: 0.32 µM

## CC(C)N1C[C@@H](C(=O)N2CCN(c3ccccc3CN3CCC(N)CC3)CC2)[C@H](c2ccc(Cl)cc2)C1
Melanocortin receptor 4 [1]
  Ki: 0.092 µM
Melanocortin receptor 4 [2]
  Intrinsic activity: 40%
Melanocortin receptor 4 [3]
  EC50: 0.39 µM

## CC(C)C[C@H](NC(=O)CN)c1cc(C(F)(F)F)ccc1N1CCN(C(=O)[C@@H]2CN(C(C)C)C[C@H]2c2ccc(Cl)cc2)CC1
Melanocortin receptor 4 [1]
  Ki: 0.0089 µM
Melanocortin receptor 4 [2]
  Intrinsic activity: 115%
Melanocortin receptor 4 [3]
  EC50: 0.044 µM

## COc1ccccc1N1CCN(C(=O)[C@@H]2CN(C(C)C)C[C@H]2c2ccc(Cl)cc2)CC1
Melanocortin receptor 4 [1]
  Ki: 0.52 µM

## CC(C)C[C@H](NC(=O)CCN(C)C)c1cc(C(F)(F)F)ccc1N1CCN(C(=O)[C@@H]2CN(C(C)C)C[C@H]2c2ccc(Cl)cc2)CC1
Melanocortin receptor 4 [1]
  Ki: 0.01 µM
Melanocortin receptor 4 [2]
  Intrinsic activity: 76%
Melanocortin receptor 4 [3]
  EC50: 0.091 µM

## CC(C)C[C@H](NC(=O)[C@@H](C)N)c1cc(C(F)(F)F)ccc1N1CCN(C(=O)[C@@H]2CN(C(C)C)C[C@H]2c2ccc(Cl)cc2)CC1
Melanocortin receptor 4 [1]
  Ki: 0.0049 µM
Melanocortin receptor 4 [2]
  Intrinsic activity: 103%
Melanocortin receptor 4 [3]
  EC50: 0.031 µM

## CCN(CC)Cc1ccccc1N1CCN(C(=O)[C@@H]2CN(C(C)C)C[C@H]2c2ccc(Cl)cc2)CC1
Melanocortin receptor 4 [1]
  Ki: 1.2 µM

## CC(C)N1C[C@@H](C(=O)N2CCN(c3ccccc3CN)CC2)[C@H](c2ccc(Cl)cc2)C1
Melanocortin receptor 4 [1]
  Ki: 1.1 µM

## CC(C)C[C@H](NC(=O)C1CNC1)c1cc(C(F)(F)F)ccc1N1CCN(C(=O)[C@@H]2CN(C(C)C)C[C@H]2c2ccc(Cl)cc2)CC1
Melanocortin receptor 4 [1]
  Ki: 0.018 µM
Melanocortin receptor 4 [2]
  Intrinsic activity: 80%
Melanocortin receptor 4 [3]
  EC50: 0.0066 µM

## CC(C)N1C[C@@H](C(=O)N2CCN(c3ccccc3CN(C)C)CC2)[C@H](c2ccc(Cl)cc2)C1
Melanocortin receptor 4 [1]
  Ki: 1.2 µM

## CC(C)N1C[C@@H](C(=O)N2CCN(c3ccccc3CN3CCN(C)CC3)CC2)[C@H](c2ccc(Cl)cc2)C1
Melanocortin receptor 4 [1]
  Ki: 0.84 µM

## Cc1nccn1Cc1ccccc1N1CCN(C(=O)[C@@H]2CN(C(C)C)C[C@H]2c2ccc(Cl)cc2)CC1
Melanocortin receptor 4 [1]
  Ki: 0.28 µM

## CC(C)C[C@H](NS(C)(=O)=O)c1cc(C(F)(F)F)ccc1N1CCN(C(=O)[C@@H]2CN(C(C)C)C[C@H]2c2ccc(Cl)cc2)CC1
Melanocortin receptor 4 [1]
  Ki: 0.087 µM
Melanocortin receptor 4 [2]
  Intrinsic activity: 96%
Melanocortin receptor 4 [3]
  EC50: 0.45 µM

## CC(C)C[C@H](NC(=O)[C@H](C)N)c1cc(C(F)(F)F)ccc1N1CCN(C(=O)[C@@H]2CN(C(C)C)C[C@H]2c2ccc(Cl)cc2)CC1
Melanocortin receptor 4 [1]
  Ki: 0.047 µM
Melanocortin receptor 4 [2]
  Intrinsic activity: 104%
Melanocortin receptor 4 [3]
  EC50: 0.21 µM

## Cc1cncn1Cc1ccccc1N1CCN(C(=O)[C@@H]2CN(C(C)C)C[C@H]2c2ccc(Cl)cc2)CC1
Melanocortin receptor 4 [1]
  Ki: 0.25 µM

## CC(C)N1C[C@@H](C(=O)N2CCN(c3ccccc3CN(C)C3CNC3)CC2)[C@H](c2ccc(Cl)cc2)C1
Melanocortin receptor 4 [1]
  Ki: 0.24 µM

## Cc1ccc(N2CCN(C(=O)[C@@H]3CN(C(C)C)C[C@H]3c3ccc(Cl)cc3)CC2)c([C@@H](NC(=O)CCN(C)C)C(C)C)c1
Melanocortin receptor 4 [1]
  Ki: 0.0047 µM
Melanocortin receptor 4 [2]
  Intrinsic activity: 102%
Melanocortin receptor 4 [3]
  EC50: 0.016 µM

## CC(C)N1C[C@@H](C(=O)N2CCN(c3ccccc3CNC3CCNCC3)CC2)[C@H](c2ccc(Cl)cc2)C1
Melanocortin receptor 4 [1]
  Ki: 0.19 µM

## COCCN(C)Cc1ccccc1N1CCN(C(=O)[C@@H]2CN(C(C)C)C[C@H]2c2ccc(Cl)cc2)CC1
Melanocortin receptor 4 [1]
  Ki: 0.32 µM
